# Assays:
# [1] = system: MDA-MB-468 cells; assay: FACS binding of meditopes to MDA-MB-468 cells pre-treated with cetuximab or M425; type: cell-based; conditions: with or without cetuximab or M425 pre-treatment
# [2] = molecular target: pertuzumab I83E IgG; assay: SPR, meditope binding to immobilized pertuzumab I83E IgG; conditions: two fold dilutions from approximately 10 um to 156 nM
# Procedure: The binding of a meditope to a meditope-enabled antibody containing the I83E modification was next examined in an in vitro binding study using surface plasmon resonance (SPR) and a meditope enabled antibody pertuzumab with the I83E modification. […] Concentrations were two fold dilutions from approximately 10 um to 156 nM. […] Further optimization of the experiment will be required due to the long off rate observed.
# [3] = system: CLL patients; conditions: cited from earlier work
# [4] = Phase I, 46 heavily pretreated CLL patients, single agent
Substance,binding to cells (FACS) [1],Kd fit [2],"objective responses [3, 4]","patients with decreased peripheral blood lymphocyte counts [3, 4]","patients with reduced enlarged lymph node size [3, 4]","MTD (maximum tolerated dose) ([3]; human, in vivo)","immunosuppression ([3]; human, in vivo)",adverse events (AEs) ([3]; majority of AEs)
C-QFDLSTRRLK-C [cQFD],bound to EGFR positive MD-MBA-468 cells only in the presence of cetuximab,no Kd could be fit to the data,,,,,,
lumiliximab: primatized anti-CD23 mAb with cynomolgus macaque variable regions and human constant regions (IgG1-κ),,,no objective Complete Responses (CRs) or Partial Responses (PRs) were observed,91%,52%,not reached,not immunosuppressive,limited to grade 1/2

# From US20180148514A1, “MULTIVALENT MEDITOPES, MEDITOPE-BINDING ANTIBODIES AND USES THEREOF” (City of Hope, priority 2014, published 2018)
